Experimental data: US10781181B2, “N-((het) arylmethyl)-heteroaryl-carboxamides compounds as plasma kallikrein inhibitors” (Kalvista Pharmaceuticals Limited, priority 2014, dated 2020)

How the values were obtained:
Format in all cases: biochemical
Human plasma kallikrein = Human plasma kallikrein (Homo sapiens (Human), UniProt P03952); experiment: Determination of the IC50 for plasma kallikrein; details: read-out: IC50 (human PKal)
Procedure: Determination of the IC50 for Plasma Kallikrein
(§1) Human plasma kallikrein (Protogen) was incubated at 25° C. with the fluorogenic substrate H-DPro-Phe-Arg-AFC and various concentrations of the test compound. Residual enzyme activity (initial rate of reaction) was determined by measuring the change in […] at 410 nm and the IC50 value for the test compound was determined.

Human KLK1 = Human KLK1 (Homo sapiens (Human), UniProt P06870); experiment: Determination of the IC50 for KLK1; details: human KLK1, 25° C., substrate H-DVal-Leu-Arg-AFC
Human KLK1, sequence (P06870 25-262): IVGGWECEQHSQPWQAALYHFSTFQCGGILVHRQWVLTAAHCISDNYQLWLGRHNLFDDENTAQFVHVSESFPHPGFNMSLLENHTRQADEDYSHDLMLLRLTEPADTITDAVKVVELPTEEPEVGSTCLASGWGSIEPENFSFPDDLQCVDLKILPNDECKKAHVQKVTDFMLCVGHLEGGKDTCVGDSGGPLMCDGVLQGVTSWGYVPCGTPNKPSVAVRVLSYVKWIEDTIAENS
Procedure: Determination of the IC50 for KLK1
as §1, with “KLK1 (Callbiochem)” for “plasma kallikrein (Protogen)”, “H-DVal-Leu-Arg-AFC” for “H-DPro-Phe-Arg-AFC”

Human FXIa = Human FXIa (Homo sapiens (Human), UniProt P03951); experiment: Determination of the % inhibition for FXIa; details: 40 μM of the test compound, human FXIa, 25° C.; read-out: % Inhibition @ 40 μM (human FXIa)
Human FXIa, sequence (P03951 388-625 limits assumed): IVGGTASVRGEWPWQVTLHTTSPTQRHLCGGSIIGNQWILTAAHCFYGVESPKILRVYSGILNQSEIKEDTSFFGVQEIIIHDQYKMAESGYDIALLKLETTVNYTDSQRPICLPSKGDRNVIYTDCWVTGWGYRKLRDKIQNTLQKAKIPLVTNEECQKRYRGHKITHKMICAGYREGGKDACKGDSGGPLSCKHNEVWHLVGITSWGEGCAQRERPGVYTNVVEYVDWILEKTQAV
Human FXIa, sequence (P03951 19-387 partner limits assumed): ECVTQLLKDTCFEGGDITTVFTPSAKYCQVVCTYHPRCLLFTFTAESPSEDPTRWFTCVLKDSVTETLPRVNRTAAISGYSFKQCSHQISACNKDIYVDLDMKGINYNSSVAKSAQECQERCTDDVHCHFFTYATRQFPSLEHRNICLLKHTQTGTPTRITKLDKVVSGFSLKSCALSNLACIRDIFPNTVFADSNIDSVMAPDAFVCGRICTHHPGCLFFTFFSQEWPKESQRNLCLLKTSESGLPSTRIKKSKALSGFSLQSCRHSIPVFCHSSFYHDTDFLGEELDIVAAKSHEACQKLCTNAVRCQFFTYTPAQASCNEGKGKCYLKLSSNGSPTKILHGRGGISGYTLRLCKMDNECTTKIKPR
Procedure: Determination of the % Inhibition for FXIa
Human FXIa (Enzyme Research Laboratories) was incubated at 25° C. with the fluorogenic substrate Z-Gly-Pro-Arg-AFC and 40 μM of the test compound. Residual enzyme activity (initial rate of reaction) was determined by measuring the change in […].

Human plasma kallikrein, sequence (P03952 391-638): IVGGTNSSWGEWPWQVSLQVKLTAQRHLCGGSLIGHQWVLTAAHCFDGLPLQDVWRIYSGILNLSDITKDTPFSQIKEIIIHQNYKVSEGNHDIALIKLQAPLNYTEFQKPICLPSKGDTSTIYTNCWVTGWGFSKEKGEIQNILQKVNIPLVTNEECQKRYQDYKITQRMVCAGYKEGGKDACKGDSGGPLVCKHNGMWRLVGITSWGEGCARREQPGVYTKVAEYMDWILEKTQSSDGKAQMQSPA
Human plasma kallikrein, sequence (P03952 20-390 partner): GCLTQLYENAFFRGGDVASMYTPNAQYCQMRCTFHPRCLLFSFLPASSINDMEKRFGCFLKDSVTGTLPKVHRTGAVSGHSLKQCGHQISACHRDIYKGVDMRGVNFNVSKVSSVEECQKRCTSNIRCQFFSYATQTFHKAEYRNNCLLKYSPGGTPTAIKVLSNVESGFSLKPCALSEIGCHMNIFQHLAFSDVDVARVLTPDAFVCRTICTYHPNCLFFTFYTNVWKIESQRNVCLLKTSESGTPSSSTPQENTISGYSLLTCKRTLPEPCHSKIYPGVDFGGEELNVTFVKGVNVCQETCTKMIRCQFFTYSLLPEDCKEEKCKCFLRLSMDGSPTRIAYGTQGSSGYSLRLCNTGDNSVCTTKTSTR

## Cc1cnn(-c2ccc(Cn3cc(C(=O)NCCOc4cccc(Cl)c4)c(N)n3)cn2)c1 [Example 89, 3-amino-N-[2-(3-chlorophenoxy)ethyl]-1-{[6-(4-methylpyrazol-1-yl)pyridin-3-yl]methyl}pyrazole-4-carboxamide]
Human plasma kallikrein
  IC50: 3.35 µM
Human KLK1
  IC50: > 40 µM
Human FXIa
  inhibition at 40 µM: 33%

## CC(=O)N(C)Cc1ccc(Cn2cc(C(=O)NCCOc3cccc(Cl)c3)c(N)n2)cc1 [Example 82, 3-amino-N-[2-(3-chlorophenoxy)ethyl]-1-({4-[(N-methylacetamido)methyl]phenyl}methyl)pyrazole-4-carboxamide]
Human plasma kallikrein
  IC50: 0.71 µM
Human KLK1
  IC50: > 40 µM
Human FXIa
  inhibition at 40 µM: 0%

## Nc1nn(Cc2ccnc(N3CCCC3)c2)cc1C(=O)NCCOc1cccc(Cl)c1 [Example 50, 3-amino-N-[2-(3-chlorophenoxy)ethyl]-1-{[2-(pyrrolidin-1-yl)pyridin-4-yl]methyl}pyrazole-4-carboxamide]
Human plasma kallikrein
  IC50: 0.326 µM
Human KLK1
  IC50: > 40 µM
Human FXIa
  inhibition at 40 µM: 59%

## Nc1nn(Cc2ccc(Cn3ccccc3=O)cc2)cc1C(=O)N[C@H]1CC(=O)N(c2cccc(Cl)c2)C1 [Example 111, 3-amino-N-[(3S)-1-(3-chlorophenyl)-5-oxopyrrolidin-3-yl]-1-({4-[(2-oxopyridin-1-yl)methyl]phenyl}methyl)pyrazole-4-carboxamide]
Human plasma kallikrein
  IC50: 0.0421 µM
Human KLK1
  IC50: > 40 µM
Human FXIa
  inhibition at 40 µM: 23%

## Nc1nn(Cc2ccc(CN3CCOCC3=O)cc2)cc1C(=O)NCCOc1cccc(Cl)c1 [Example 76, 3-amino-N-[2-(3-chlorophenoxy)ethyl]-1-({4-[(3-oxomorpholin-4-yl)methyl]phenyl}methyl)pyrazole-4-carboxamide]
Human plasma kallikrein
  IC50: 0.227 µM
Human KLK1
  IC50: > 40 µM
Human FXIa
  inhibition at 40 µM: 0%

## Nc1nn(Cc2cccc(-c3ccccc3)n2)cc1C(=O)NCCOc1cccc(Cl)c1 [Example 72, 3-amino-N-[2-(3-chlorophenoxy)ethyl]-1-[(6-phenylpyridin-2-yl)methyl]pyrazole-4-carboxamide]
Human plasma kallikrein
  IC50: 5.94 µM
Human KLK1
  IC50: > 40 µM
Human FXIa
  inhibition at 40 µM: 26%

## Nc1nn(Cc2ccc3[nH]ncc3c2)cc1C(=O)NCCOc1cccc(Cl)c1 [Example 92, 3-amino-N-[2-(3-chlorophenoxy)ethyl]-1-(1H-indazol-5-ylmethyl)pyrazole-4-carboxamide]
Human plasma kallikrein
  IC50: > 10 µM
Human KLK1
  IC50: > 10 µM
Human FXIa
  inhibition at 40 µM: 2%

## Nc1nn(Cc2ccc(Cn3ccccc3=O)cc2)cc1C(=O)N[C@@H]1CCN(Cc2cccc(Cl)c2)C1 [Example 108, 3-amino-N-[(3R)-1-[(3-chlorophenyl)methyl]pyrrolidin-3-yl]-1-({4-[(2-oxopyridin-1-yl)methyl]phenyl}methyl)pyrazole-4-carboxamide]
Human plasma kallikrein
  IC50: 0.299 µM
Human KLK1
  IC50: > 40 µM
Human FXIa
  inhibition at 40 µM: 0%

## Nc1nn(Cc2ccc(Cn3ccccc3=O)cc2)cc1C(=O)NCCNc1cc(Cl)ccn1 [Example 47, 3-amino-N-{2-[(4-chloropyridin-2-yl)amino]ethyl}-1-({4-[(2-oxopyridin-1-yl)methyl]phenyl}methyl)pyrazole-4-carboxamide]
Human plasma kallikrein
  IC50: 0.0301 µM
Human KLK1
  IC50: > 40 µM
Human FXIa
  inhibition at 40 µM: 32%

## CNc1nn(Cc2ccc(Cn3ccccc3=O)cc2)cc1C(=O)NCCOc1cccc(Cl)c1 [Example 37, N-[2-(3-Chlorophenoxy)ethyl]-3-(methylamino)-1-({4-[(2-oxopyridin-1-yl)methyl]phenyl}methyl)pyrazole-4-carboxamide]
Human plasma kallikrein
  IC50: 0.0185 µM
Human KLK1
  IC50: > 40 µM
Human FXIa
  inhibition at 40 µM: 8%

## Nc1nn(Cc2ccc(Cn3ccccc3=O)cc2)cc1C(=O)N[C@H]1CCN(Cc2cccc(Cl)c2)C1 [Example 109, 3-amino-N-[(3S)-1-[(3-chlorophenyl)methyl]pyrrolidin-3-yl]-1-({4-[(2-oxopyridin-1-yl)methyl]phenyl}methyl)pyrazole-4-carboxamide]
Human plasma kallikrein
  IC50: 0.384 µM
Human KLK1
  IC50: > 40 µM
Human FXIa
  inhibition at 40 µM: 0%

## CNC(=O)CNc1ccc(Cn2cc(C(=O)NCCOc3cccc(Cl)c3)c(N)n2)cn1 [Example 78, 3-amino-N-[2-(3-chlorophenoxy)ethyl]-1-[(6-{[(methylcarbamoyl)methyl]amino}pyridin-3-yl)methyl]pyrazole-4-carboxamide]
Human plasma kallikrein
  IC50: 6.93 µM
Human KLK1
  IC50: > 40 µM
Human FXIa
  inhibition at 40 µM: 4%

## Nc1c(C(=O)NCCOc2cccc(Cl)c2)cnn1Cc1ccc(Cn2ccccc2=O)cc1 [Example 17, 5-amino-N-[2-(3-chlorophenoxy)ethyl]-1-({4-[(2-oxopyridin-1-yl)methyl]phenyl}methyl)pyrazole-4-carboxamide]
Human plasma kallikrein
  IC50: 0.096 µM
Human KLK1
  IC50: > 10 µM
Human FXIa
  inhibition at 40 µM: 2%

## Nc1nn(Cc2ccc(C(=O)N3CCCC3)cc2)cc1C(=O)NCCOc1cccc(Cl)c1 [Example 51, 3-amino-N-[2-(3-chlorophenoxy)ethyl]-1-({4-[(pyrrolidin-1-yl)carbonyl]phenyl}methyl)pyrazole-4-carboxamide]
Human plasma kallikrein
  IC50: 0.427 µM
Human KLK1
  IC50: > 40 µM
Human FXIa
  inhibition at 40 µM: 51%

## COC(=O)c1ccc(Cn2cc(C(=O)NCCOc3cccc(Cl)c3)c(N)n2)cc1 [Example 58, methyl 4-[(3-amino-4-{[2-(3-chlorophenoxy)ethyl]carbamoyl}pyrazol-1-yl)methyl]benzoate]
Human plasma kallikrein
  IC50: 5.42 µM
Human KLK1
  IC50: > 40 µM
Human FXIa
  inhibition at 40 µM: 1%

## O=C(NCCOc1cccc(Cl)c1)c1cn(Cc2ccc(N3CCCC3)nc2)nc1C(F)(F)F [Example 28, N-[2-(3-chlorophenoxy)ethyl]-1-{[6-(pyrrolidin-1-yl)pyridin-3-yl]methyl}-3-(trifluoromethyl)pyrazole-4-carboxamide]
Human plasma kallikrein
  IC50: 2.39 µM
Human KLK1
  IC50: > 10 µM
Human FXIa
  inhibition at 40 µM: 0%

## Nc1nn(Cc2ccc(Oc3ccccc3)cc2)cc1C(=O)NCCOc1cccc(Cl)c1 [Example 71, 3-amino-N-[2-(3-chlorophenoxy)ethyl]-1-[(4-phenoxyphenyl)methyl]pyrazole-4-carboxamide]
Human plasma kallikrein
  IC50: 2.07 µM
Human KLK1
  IC50: > 40 µM
Human FXIa
  inhibition at 40 µM: 0%

## Nc1nn(Cc2ccc(Cn3ccccc3=O)cc2)cc1C(=O)NCCOc1cccc(Cl)c1Cl [Example 29, 3-amino-N-[2-(2,3-dichlorophenoxy}ethyl]-1-({4-[(2-oxopyridin-1-yl)methyl]phenyl}methyl)pyrazole-4-carboxamide]
Human plasma kallikrein
  IC50: 2.93 µM
Human KLK1
  IC50: > 40 µM
Human FXIa
  inhibition at 40 µM: 0%

## Nc1nn(Cc2ccc(Cn3ccccc3=O)cc2)cc1C(=O)NCCOc1ccc(Cl)c(Cl)c1 [Example 30, 3-amino-N-[2-(3,4-dichlorophenoxy}ethyl]-1-({4-[(2-oxopyridin-1-yl)methyl]phenyl}methyl)pyrazole-4-carboxamide]
Human plasma kallikrein
  IC50: 0.0968 µM
Human KLK1
  IC50: > 40 µM
Human FXIa
  inhibition at 40 µM: 0%

## Nc1nn(Cc2ccc(Cn3ccccc3=O)cc2)cc1C(=O)N[C@H]1CCN(c2cccc(Cl)c2)C1 [Example 105, 3-amino-N-[(3S)-1-(3-chlorophenyl)pyrrolidin-3-yl]-1-({4-[(2-oxopyridin-1-yl)methyl]phenyl}methyl)pyrazole-4-carboxamide]
Human plasma kallikrein
  IC50: 0.0038 µM
Human KLK1
  IC50: > 40 µM
Human FXIa
  inhibition at 40 µM: 0%

## Nc1nn(Cc2ccnc(-c3cccnc3)c2)cc1C(=O)NCCOc1cccc(Cl)c1 [Example 91, 3-amino-N-[2-(3-chlorophenoxy)ethyl]-1-{[2-(pyridin-3-yl)pyridin-4-yl]methyl}pyrazole-4-carboxamide]
Human plasma kallikrein
  IC50: 3.78 µM
Human KLK1
  IC50: > 40 µM
Human FXIa
  inhibition at 40 µM: 0%

## Nc1nn(Cc2nc(Cc3ccccc3)no2)cc1C(=O)NCCOc1cccc(Cl)c1 [Example 90, 3-amino-1-[(3-benzyl-1,2,4-oxadiazol-5-yl)methyl]-N-[2-(3-chlorophenoxy)ethyl]pyrazole-4-carboxamide]
Human plasma kallikrein
  IC50: > 10 µM
Human KLK1
  IC50: > 40 µM
Human FXIa
  inhibition at 40 µM: 0%

## Nc1nn(Cc2ccc(N3CCCC3)nc2)cc1C(=O)NCCOc1cccc(Cl)c1 [Example 49, 3-amino-N-[2-(3-chlorophenoxy)ethyl]-1-{[6-(pyrrolidin-1-yl)pyridin-3-yl]methyl}pyrazole-4-carboxamide]
Human plasma kallikrein
  IC50: 0.847 µM
Human KLK1
  IC50: > 40 µM
Human FXIa
  inhibition at 40 µM: 0%

## Nc1nn(Cc2ccc(Cn3ccccc3=O)cc2)cc1C(=O)N[C@H]1CCN(c2cccc(Cl)c2)C1=O [Example 107, 3-amino-N-[(3S)-1-(3-chlorophenyl)-2-oxopyrrolidin-3-yl]-1-({4-[(2-oxopyridin-1-yl)methyl]phenyl}methyl)pyrazole-4-carboxamide]
Human plasma kallikrein
  IC50: 0.0048 µM
Human KLK1
  IC50: > 40 µM
Human FXIa
  inhibition at 40 µM: 2%

## Nc1nn(Cc2ccc(-n3ccccc3=O)cc2)cc1C(=O)NCCOc1cccc(Cl)c1 [Example 52, 3-amino-N-[2-(3-chlorophenoxy)ethyl]-1-{[4-(2-oxopyridin-1-yl)phenyl]methyl}pyrazole-4-carboxamide]
Human plasma kallikrein
  IC50: 0.335 µM
Human KLK1
  IC50: > 40 µM
Human FXIa
  inhibition at 40 µM: 0%

## COCc1nn(Cc2ccc(Cn3cc(C)cn3)cc2)cc1C(=O)NCCOc1cccc(Cl)c1 [Example 27, N-[2-(3-chlorophenoxy)ethyl]-3-(methoxymethyl)-1-({4-[(4-methylpyrazol-1-yl)methyl]phenyl}methyl)pyrazole-4-carboxamide]
Human plasma kallikrein
  IC50: 0.231 µM
Human KLK1
  IC50: > 10 µM
Human FXIa
  inhibition at 40 µM: 0%
